Reference: ChEMBL document CHEMBL5532666 (J Med Chem, 2024)
Active and inactive are the calls of the source. The rule behind the calls is not given here.

Key:
[1] = target: Glycogen synthase kinase-3 beta (Homo sapiens) (UniProt P49841); test: Binding affinity to GSK3B (unknown origin) assessed as thermal stabilization by measuring change in melting temperature by DSF analysis
[2] = target: Maternal embryonic leucine zipper kinase (Homo sapiens) (UniProt Q14680); test: Binding affinity to MELK (unknown origin) assessed as thermal stabilization by measuring change in melting temperature by DSF analysis
Maternal embryonic leucine zipper kinase (Homo sapiens), sequence (Q14680 whole entry, looked up, the tested form may be a part): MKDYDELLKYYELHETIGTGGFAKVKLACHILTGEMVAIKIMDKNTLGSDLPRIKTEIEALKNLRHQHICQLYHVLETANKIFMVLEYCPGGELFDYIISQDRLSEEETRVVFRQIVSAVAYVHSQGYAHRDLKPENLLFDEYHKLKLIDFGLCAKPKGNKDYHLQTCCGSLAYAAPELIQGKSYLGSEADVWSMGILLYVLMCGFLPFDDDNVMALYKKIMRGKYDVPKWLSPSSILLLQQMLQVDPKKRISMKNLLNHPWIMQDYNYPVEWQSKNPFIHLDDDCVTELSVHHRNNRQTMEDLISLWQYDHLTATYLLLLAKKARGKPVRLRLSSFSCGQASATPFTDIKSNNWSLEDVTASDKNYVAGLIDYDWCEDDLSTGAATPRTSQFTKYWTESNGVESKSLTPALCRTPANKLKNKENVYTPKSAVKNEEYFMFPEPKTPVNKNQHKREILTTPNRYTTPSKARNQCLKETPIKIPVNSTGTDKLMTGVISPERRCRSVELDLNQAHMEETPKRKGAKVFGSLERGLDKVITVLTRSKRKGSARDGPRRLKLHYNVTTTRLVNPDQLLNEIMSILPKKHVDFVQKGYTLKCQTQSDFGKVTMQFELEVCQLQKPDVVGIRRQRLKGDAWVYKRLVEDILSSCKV

[3] = target: T1, Serine/threonine-protein kinase 26 (Homo sapiens, UniProt Q9P289); test: Binding affinity to N-terminal 6His-tagged TEV fused MST4 (unknown origin) expressed in Escherichia coli BL21 (DE3) cells assessed as dissociation constant by ITC analysis
Target sequence in this assay (Q9P289 whole entry, the tested form may be a part): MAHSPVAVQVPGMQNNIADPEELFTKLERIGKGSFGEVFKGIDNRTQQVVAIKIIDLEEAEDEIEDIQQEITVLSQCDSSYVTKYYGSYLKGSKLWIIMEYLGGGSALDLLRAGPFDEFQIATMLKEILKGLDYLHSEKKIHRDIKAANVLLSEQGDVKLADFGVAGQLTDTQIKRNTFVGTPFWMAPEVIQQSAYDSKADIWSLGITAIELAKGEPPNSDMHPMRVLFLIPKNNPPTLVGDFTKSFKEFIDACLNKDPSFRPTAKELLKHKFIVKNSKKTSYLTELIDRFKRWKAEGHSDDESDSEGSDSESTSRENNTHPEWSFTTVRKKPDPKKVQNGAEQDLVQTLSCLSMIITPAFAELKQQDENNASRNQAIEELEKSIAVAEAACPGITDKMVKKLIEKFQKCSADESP

[4] = target: T2, Serine/threonine-protein kinase 4 (Homo sapiens, UniProt Q13043); test: Binding affinity to N-terminal full length human MST1 expressed in intact HEK293T cells incubated for 2 hrs by NanoBRET assay; type: cell-based
T2 sequence (Q13043 whole entry): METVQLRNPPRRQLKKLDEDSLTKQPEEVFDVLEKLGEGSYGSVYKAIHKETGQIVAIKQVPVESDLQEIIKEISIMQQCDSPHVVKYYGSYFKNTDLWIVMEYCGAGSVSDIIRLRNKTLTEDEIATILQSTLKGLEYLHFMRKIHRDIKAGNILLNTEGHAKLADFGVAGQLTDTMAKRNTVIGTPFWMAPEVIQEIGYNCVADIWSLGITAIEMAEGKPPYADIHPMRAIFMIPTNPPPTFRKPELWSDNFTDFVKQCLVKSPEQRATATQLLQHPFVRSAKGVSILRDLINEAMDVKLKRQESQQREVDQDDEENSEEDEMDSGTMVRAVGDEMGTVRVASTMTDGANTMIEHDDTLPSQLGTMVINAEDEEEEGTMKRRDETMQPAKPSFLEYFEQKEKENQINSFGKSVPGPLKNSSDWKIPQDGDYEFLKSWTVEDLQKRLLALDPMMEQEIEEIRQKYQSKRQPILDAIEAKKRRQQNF

[5] = target: T3, Serine/threonine-protein kinase 3 (Homo sapiens, UniProt Q13188); test: Binding affinity to N-terminal full length human MST2 expressed in intact HEK293T cells incubated for 2 hrs by NanoBRET assay; type: cell-based
T3 sequence (Q13188 whole entry): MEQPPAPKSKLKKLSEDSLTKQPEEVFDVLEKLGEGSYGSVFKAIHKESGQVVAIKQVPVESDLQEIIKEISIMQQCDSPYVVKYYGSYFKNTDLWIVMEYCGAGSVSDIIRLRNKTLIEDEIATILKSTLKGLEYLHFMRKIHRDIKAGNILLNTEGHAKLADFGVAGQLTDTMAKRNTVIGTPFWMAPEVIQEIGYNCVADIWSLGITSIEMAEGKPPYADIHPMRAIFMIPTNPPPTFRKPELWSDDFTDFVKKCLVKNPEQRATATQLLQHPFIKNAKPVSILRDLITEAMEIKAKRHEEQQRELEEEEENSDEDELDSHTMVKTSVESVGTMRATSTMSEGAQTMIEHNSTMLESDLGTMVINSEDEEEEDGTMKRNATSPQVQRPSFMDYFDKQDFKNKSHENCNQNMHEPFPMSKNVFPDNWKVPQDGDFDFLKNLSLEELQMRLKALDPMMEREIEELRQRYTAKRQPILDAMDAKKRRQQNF

[6] = target: T4, Serine/threonine-protein kinase 24 (Homo sapiens, UniProt Q9Y6E0); test: Binding affinity to C-terminal full length human MST3 expressed in intact HEK293T cells incubated for 2 hrs by NanoBRET assay; type: cell-based
Target sequence in this assay (Q9Y6E0 whole entry): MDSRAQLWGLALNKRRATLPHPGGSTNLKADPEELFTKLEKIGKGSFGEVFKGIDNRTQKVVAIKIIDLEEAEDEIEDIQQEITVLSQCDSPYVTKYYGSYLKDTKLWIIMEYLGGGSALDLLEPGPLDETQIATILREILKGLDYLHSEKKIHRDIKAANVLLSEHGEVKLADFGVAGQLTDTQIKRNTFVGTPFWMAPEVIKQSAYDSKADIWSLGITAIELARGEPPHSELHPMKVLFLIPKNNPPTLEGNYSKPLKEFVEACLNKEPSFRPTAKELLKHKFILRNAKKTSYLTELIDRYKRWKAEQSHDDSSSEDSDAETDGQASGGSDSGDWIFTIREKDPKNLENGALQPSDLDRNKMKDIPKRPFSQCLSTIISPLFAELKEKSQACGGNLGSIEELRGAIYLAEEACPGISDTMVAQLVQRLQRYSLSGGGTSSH

[7] = target: T1, Serine/threonine-protein kinase 26; test: Binding affinity to C-terminal full length human MST4 expressed in intact HEK293T cells incubated for 2 hrs by NanoBRET assay; type: cell-based
Target sequence in this assay (Q9P289 whole entry, the tested form may be a part): as the sequence (Q9P289 whole entry, the tested form may be a part) above

[8] = target: T4, Serine/threonine-protein kinase 24; test: Binding affinity to C-terminal full length human MST3 expressed in permeabilized HEK293T cells incubated for 2 hrs by NanoBRET assay; type: cell-based
Target sequence in this assay (Q9Y6E0 whole entry): as the sequence (Q9Y6E0 whole entry) above

[9] = target: T1, Serine/threonine-protein kinase 26; test: Binding affinity to C-terminal full length human MST4 expressed in permeabilized HEK293T cells incubated for 2 hrs by NanoBRET assay; type: cell-based
Target sequence in this assay (Q9P289 whole entry, the tested form may be a part): as the sequence (Q9P289 whole entry, the tested form may be a part) above

[10] = target: T1, Serine/threonine-protein kinase 26; test: Binding affinity to N-terminal 6His-tagged TEV fused MST4 (unknown origin) expressed in Escherichia coli BL21 (DE3) cells assessed as change in binding enthalpy by ITC analysis
Target sequence in this assay (Q9P289 2-416 limits assumed): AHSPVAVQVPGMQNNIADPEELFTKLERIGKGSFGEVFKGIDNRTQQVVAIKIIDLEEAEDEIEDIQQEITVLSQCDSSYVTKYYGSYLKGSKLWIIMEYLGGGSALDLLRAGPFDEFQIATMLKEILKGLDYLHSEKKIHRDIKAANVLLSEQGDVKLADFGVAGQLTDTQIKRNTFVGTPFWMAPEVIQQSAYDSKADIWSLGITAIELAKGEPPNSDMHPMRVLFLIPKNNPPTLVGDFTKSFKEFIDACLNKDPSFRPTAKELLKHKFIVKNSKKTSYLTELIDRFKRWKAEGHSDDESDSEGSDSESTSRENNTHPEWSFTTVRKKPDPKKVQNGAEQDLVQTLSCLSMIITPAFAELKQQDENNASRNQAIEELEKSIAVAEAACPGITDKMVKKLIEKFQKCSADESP

[11] = target: T1, Serine/threonine-protein kinase 26; test: Binding affinity to N-terminal 6His-tagged TEV fused MST4 (unknown origin) expressed in Escherichia coli BL21 (DE3) cells assessed as offset in binding entropy change by ITC analysis
Target sequence in this assay (Q9P289 2-416 limits assumed): as above

[12] = target: T1, Serine/threonine-protein kinase 26; test: Inhibition of wildtype MST4 (unknown origin) assessed as residual activity at 1 uM relative to control
Target sequence in this assay (Q9P289 2-416 limits assumed): as above

[13] = target: T5, LIM domain kinase 1 (Homo sapiens, UniProt P53667); test: Inhibition of wildtype LIMK1 (unknown origin) assessed as residual activity at 1 uM relative to control
Target sequence in this assay (P53667 whole entry, looked up, the tested form may be a part): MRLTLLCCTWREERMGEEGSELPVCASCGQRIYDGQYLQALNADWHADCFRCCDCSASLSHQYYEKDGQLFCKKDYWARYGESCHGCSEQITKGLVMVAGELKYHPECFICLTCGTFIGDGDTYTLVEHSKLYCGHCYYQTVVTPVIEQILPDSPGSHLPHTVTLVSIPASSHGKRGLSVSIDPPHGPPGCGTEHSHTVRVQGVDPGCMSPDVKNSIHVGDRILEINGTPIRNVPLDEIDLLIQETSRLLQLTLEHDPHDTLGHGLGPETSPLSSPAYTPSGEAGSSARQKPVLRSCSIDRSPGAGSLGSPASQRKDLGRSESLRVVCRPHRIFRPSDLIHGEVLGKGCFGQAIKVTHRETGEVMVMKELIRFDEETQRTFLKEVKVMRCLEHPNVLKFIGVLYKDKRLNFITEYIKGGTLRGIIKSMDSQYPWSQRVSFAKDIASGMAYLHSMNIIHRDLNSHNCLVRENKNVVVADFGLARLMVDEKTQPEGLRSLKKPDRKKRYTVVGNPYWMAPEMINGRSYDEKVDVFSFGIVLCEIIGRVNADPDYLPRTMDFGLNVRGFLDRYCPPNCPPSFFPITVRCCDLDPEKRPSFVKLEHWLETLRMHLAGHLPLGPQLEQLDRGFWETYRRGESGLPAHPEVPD

[14] = target: T5, LIM domain kinase 1; test: Binding affinity to LIMK1 (unknown origin) expressed in permeabilized HEK293T cells incubated for 2 hrs by NanoBRET assay; type: cell-based
Target sequence in this assay (P53667 whole entry, the tested form may be a part): as the sequence (P53667 whole entry, looked up, the tested form may be a part) above

[15] = target: T6, LIM domain kinase 2 (Homo sapiens, UniProt P53671); test: Binding affinity to LIMK2 (unknown origin) expressed in intact HEK293T cells incubated for 2 hrs by NanoBRET assay; type: cell-based
T6 sequence (P53671 whole entry, the tested form may be a part): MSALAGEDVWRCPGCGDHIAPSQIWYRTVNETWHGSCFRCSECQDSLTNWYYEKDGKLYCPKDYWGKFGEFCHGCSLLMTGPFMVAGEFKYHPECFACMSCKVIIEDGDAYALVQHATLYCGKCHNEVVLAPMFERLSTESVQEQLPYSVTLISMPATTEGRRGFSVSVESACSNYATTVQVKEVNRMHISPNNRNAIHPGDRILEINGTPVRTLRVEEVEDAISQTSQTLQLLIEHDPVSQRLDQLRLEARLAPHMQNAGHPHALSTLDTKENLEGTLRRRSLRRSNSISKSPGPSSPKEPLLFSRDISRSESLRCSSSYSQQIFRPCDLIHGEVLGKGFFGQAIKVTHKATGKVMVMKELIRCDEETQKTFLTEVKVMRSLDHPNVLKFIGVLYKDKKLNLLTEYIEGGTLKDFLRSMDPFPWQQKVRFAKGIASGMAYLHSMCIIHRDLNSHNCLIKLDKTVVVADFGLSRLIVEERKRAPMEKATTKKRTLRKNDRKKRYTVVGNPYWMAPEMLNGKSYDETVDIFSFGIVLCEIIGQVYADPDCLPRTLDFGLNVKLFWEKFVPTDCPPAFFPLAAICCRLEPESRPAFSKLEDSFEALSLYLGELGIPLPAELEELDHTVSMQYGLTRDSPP

[16] = target: T6, LIM domain kinase 2; test: Binding affinity to LIMK2 (unknown origin) expressed in permeabilized HEK293T cells incubated for 2 hrs by NanoBRET assay; type: cell-based
[17] = tested on: HCT-116; test: Cell cycle arrest in human HCT-116 cells expressing […] assessed as G2/M phase cells at 10 uM incubated for 72 hrs by Hoechst33342 staining based analysis (reference value: 38%); type: functional
[18] = Metabolic stability in Sprague-Dawley rat liver microsomes assessed as parent compound remaining at 10 uM preincubated with NADPH for 5 mins followed by microsomal addition and measured upto 60 mins by HPLC analysis; type: ADME, Microsome; details: time < 65 min, read-out: Stability
[19] = tested on: HCT-116; test: Cell cycle arrest in human HCT-116 cells expressing […] assessed as G1 phase cells at 1 uM incubated for 72 hrs by Hoechst33342 staining based analysis (reference value: 52%); type: functional
[20] = Toxicity in human HCT-116 cells expressing FUCCI assessed as reduction in cell viability at 1 uM measured after 48 hrs by Hoechst33342 staining based analysis; details: hct-116, 48 h
[21] = Toxicity in human HCT-116 cells expressing FUCCI assessed as reduction in normalized cell count at 10 uM measured upto 80 hrs by Hoechst33342 staining based analysis; details: hct-116, 80 h
[22] = Toxicity in human HCT-116 cells expressing FUCCI assessed as normalized cell count at 10 uM measured after 72 hrs by Hoechst33342 staining based analysis relative to control; details: read-out: Activity
[23] = Toxicity in human HCT-116 cells expressing FUCCI assessed as cells with healthy nuclei at 1 to 10 uM measured after 24 hrs by Hoechst33342 staining based analysis relative to control; type: cell-based; details: hct-116, 24 h, dose 1-10 µM
[24] = target: T4, Serine/threonine-protein kinase 24; details: dose 10.0 µM
Target sequence in this assay (Q9Y6E0 whole entry, looked up): as the sequence (Q9Y6E0 whole entry) above
Description: Binding affinity to recombinant MST3 (unknown origin) kinase domain assessed as thermal stabilization by measuring change in melting temperature at 10 uM by DSF analysis

Glycogen synthase kinase-3 beta (Homo sapiens), sequence (P49841 whole entry, looked up): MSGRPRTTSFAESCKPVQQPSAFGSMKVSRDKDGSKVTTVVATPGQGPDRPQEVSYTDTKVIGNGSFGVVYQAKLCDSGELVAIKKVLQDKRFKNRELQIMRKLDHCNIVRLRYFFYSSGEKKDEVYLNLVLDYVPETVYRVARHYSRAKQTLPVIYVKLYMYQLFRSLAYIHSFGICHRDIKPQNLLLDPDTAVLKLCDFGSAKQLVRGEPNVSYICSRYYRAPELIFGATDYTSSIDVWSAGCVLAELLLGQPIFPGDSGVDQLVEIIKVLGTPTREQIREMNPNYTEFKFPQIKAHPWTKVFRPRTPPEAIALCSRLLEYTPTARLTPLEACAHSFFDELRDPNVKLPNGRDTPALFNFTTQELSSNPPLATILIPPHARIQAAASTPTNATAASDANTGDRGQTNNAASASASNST

- ΔTm [1]: 5.1 °C
- ΔTm [2]: 5.1 °C
- Kd [3]: 0.115 µM
- EC50 [4]: > 50 µM
- EC50 [5]: > 50 µM
- EC50 [6]: 0.11 µM
- EC50 [7]: 1.43 µM
- EC50 [8]: 0.08 µM
- EC50 [9]: 0.36 µM
- Activity [10]: Active
- Activity [11]: Active
- Activity [12]: 18%
- Activity [13]: 36.6%
- EC50 [14]: 2.48 µM
- EC50 [15]: 1.78 µM
- EC50 [16]: 1 µM
- remaining at 1 h, 10 µM [18]: 88%
- ΔTm [24]: 7.5 °C
Compound: O=C1NCCCCCNc2nc(c3ccccc3n2)Nc2cc1[nH]n2
- Activity [17]: 33%
- Activity [19]: 57%
- Activity [20]: Non-Toxic
- Activity [21]: Toxic
- viability at 72 h, 10 µM [22]: < 30%
- Activity [23]: 80%
